Patent US11155517B2, “4-substituted phenylamine derivatives and their use to protect crops by fighting undesired phytopathogenic micoorganisms” (PI INDUSTRIES LTD., priority 2016, dated 2021)

Tests used:
Assay type in all cases: cell-based
[1] = system: Pyricularia oryzae; assay: microbe, parasite or virus in culture; details: 168 h, read-out: % control compared to the untreated check (radial growth)
[2] = system: Rhizoctonia solani; assay: Rhizoctonia solani (rice sheath blight/potato black scurf) in vitro test, radial growth on Potato Dextrose Agar; details: 168 h, 300 ppm, seven days, 25° C., read-out: % control compared to the untreated check (radial growth)
[3] = system: Botrytis cinerea; assay: Botrytis cinerea (gray mold) in vitro test, radial growth on Potato Dextrose Agar; details: 168 h, 300 ppm, seven days, 22° C., read-out: % (control) compared to the untreated check (radial growth)
[4] = system: Alternaria solani; assay: Alternaria solani (early blight of tomato/potato) in vitro test, radial growth on Potato Dextrose Agar; details: 168 h, 300 ppm, seven days, 25° C., read-out: % control compared to the untreated check (radial growth)
[5] = system: Colletotrichum capsici; assay: Colletotrichum capsici (anthracnose) in vitro test, radial growth on Potato Dextrose Agar; details: Colletotrichum truncatum, 168 h; 300 ppm; seven days, 25° C.; read-out: % control compared to the untreated check (radial growth)
[6] = system: Septoria lycopersici; assay: Septoria lycopersici (leaf spot of tomato) in vitro test, radial growth on Potato Dextrose Agar; details: 168 h, seven days, 25° C., read-out: % control compared to the untreated check (radial growth)
[7] = system: Fusarium culmorum; assay: Fusarium culmorum (foot rot of cereals) in vitro test, radial growth on Potato Dextrose Agar; details: Fusarium culmorum, 168 h, read-out: % control compared to the untreated check (radial growth)

| Structure (SMILES) | inhibition of growth at 300 ppm [1] | inhibition of growth at 300 ppm [2] | inhibition of growth at 300 ppm [3] | inhibition of growth at 300 ppm [4] | inhibition of growth at 300 ppm [5] | inhibition of growth at 300 ppm [6] | inhibition of growth at 300 ppm [7] |
| --- | --- | --- | --- | --- | --- | --- | --- |
| Cc1cc(N=CNC(C)C)c(C)cc1Cc1ccccc1Cl [Compound 67, N′-(4-(2-chlorobenzyl)-2,5-dimethylphenyl)-N-isopropylformimidamide] | > 75% | > 80% | > 80% | > 75% | > 80% | > 70% | 75% |
| CCN(C)C=Nc1cc(C)c(Cc2ccc(Cl)c(C)c2)cc1C [Compound 108, N′-(4-(4-chloro-3-methylbenzyl)-2,5-dimethylphenyl)-N-ethyl-N-methylformimidamide] | > 75% | > 80% | > 80% | > 75% | > 80% | > 70% | 75% |
| CCN(C)C=Nc1cc(C)c(Cc2ccc(Cl)cc2Cl)cc1C [Compound 162, N′-(4-(2,4-dichlorobenzyl)-2,5-dimethylphenyl)-N-ethyl-N-methylformimidamide] | > 75% | > 80% | > 80% | > 75% | > 80% | > 70% | 75% |
| CCN(C)C=Nc1cc(C)c(Cc2ccccc2F)cc1F [Compound 214, N-ethyl-N′-(2-fluoro-4-(2-fluorobenzyl)-5-methylphenyl)-N-methylformimidamide] | > 75% | > 80% | > 80% | > 75% | > 80% | > 70% | 75% |
| CCN(C)C=Nc1cc(C)c(Cc2cc(F)ccc2Cl)cc1C [Compound 143, N′-(4-(2-chloro-5-fluorobenzyl)-2,5-dimethylphenyl)-N-ethyl-N-methylformimidamide] | > 75% | > 80% | > 80% | > 75% | > 80% | > 70% | 75% |
| CCN(C)C=Nc1cc(F)c(Cc2ccccc2F)cc1C [Compound 185, N-ethyl-N′-(5-fluoro-4-(2-fluorobenzyl)-2-methylphenyl)-N-methylformimidamide] | > 75% | > 80% | > 80% | > 75% | > 80% | > 70% | 75% |
| CCN(C)C=Nc1cc(F)c(Cc2ccccc2C)cc1C [Compound 186, N-ethyl-N′-(5-fluoro-2-methyl-4-(2-methylbenzyl)phenyl)-N-methylformimidamide] | > 75% | > 80% | > 80% | > 75% | > 80% | > 70% | 75% |
| CCN(C)C=Nc1cc(C)c(Cc2cc(F)cc(C(F)(F)F)c2)cc1C [Compound 52, N-ethyl-N′-(4-(3-fluoro-5-(trifluoromethyl)benzyl)-2,5-dimethylphenyl)-N-methylformimidamide] | > 75% | > 80% | > 80% | > 75% | > 80% | > 70% | 75% |
| CCN(C)C=Nc1cc(C)c(Cc2cc(F)cc(OC)c2)cc1Cl [Compound 169, N′-(2-chloro-4-(3-fluoro-5-methoxybenzyl)-5-methylphenyl)-N-ethyl-N-methylformimidamide] | > 75% | > 80% | > 80% | > 75% | > 80% | > 70% | 75% |
| CCN(C)C=Nc1cc(C(F)(F)F)c(Cc2cccc(C)c2)cc1C1CC1 [Compound 263, N′-(2-cyclopropyl-4-(3-methylbenzyl)-5-(trifluoromethyl)phenyl)-N-ethyl-N-methylformimidamide] | > 75% | > 80% | > 80% | > 75% | > 80% | > 70% | 75% |
| CCN(C)C=Nc1cc(C(F)(F)F)c(Cc2ccccc2Cl)cc1C1CC1 [Compound 262, N′-(4-(2-chlorobenzyl)-2-cyclopropyl-5-(trifluoromethyl)phenyl)-N-ethyl-N-methylformimidamide] | > 75% | > 80% | > 80% | > 75% | > 80% | > 70% | 75% |
| CCN(C)C=Nc1cc(Cl)c(Cc2ccccc2F)cc1C [Compound 256, N′-(5-chloro-4-(2-fluorobenzyl)-2-methylphenyl)-N-ethyl-N-methylformimidamide] | > 75% | > 80% | > 80% | > 75% | > 80% | > 70% | 75% |
| CCN(C)C=Nc1cc(C)c(Cc2ccccc2Cl)cc1C1CC1 [Compound 223, N′-(4-(2-chlorobenzyl)-2-cyclopropyl-5-methylphenyl)-N-ethyl-N-methylformimidamide] | > 75% | > 80% | > 80% | > 75% | > 80% | > 70% | 75% |
| CCN(C)C=Nc1cc(C)c(Cc2cccc(C#N)c2)cc1C [Compound 47, N′-(4-(3-cyanobenzyl)-2,5-dimethylphenyl)-N-ethyl-N-methylformimidamide] | > 75% | > 80% | > 80% | > 75% | > 80% | > 70% | 75% |
| CCN(C)C=Nc1cc(C)c(Cc2cccc([N+](=O)[O-])c2)cc1C [Compound 49, N′-(2,5-dimethyl-4-(3-nitrobenzyl)phenyl)-N-ethyl-N-methylformimidamide] | > 75% | > 80% | > 80% | > 75% | > 80% | > 70% | 75% |
| CCN(C)C=Nc1cc(C)c(Cc2cccc(Cl)c2F)cc1C [Compound 118, N′-(4-(3-chloro-2-fluorobenzyl)-2,5-dimethylphenyl)-N-ethyl-N-methylformimidamide] | > 75% | > 80% | > 80% | > 75% | > 80% | > 70% | 75% |
| CCN(C)C=Nc1cc(C)c(Cc2ccccc2Br)cc1C [Compound 154, N′-(4-(2-bromobenzyl)-2,5-dimethylphenyl)-N-ethyl-N-methylformimidamide] | > 75% | > 80% | > 80% | > 75% | > 80% | > 70% | 75% |
| CCN(C)C=Nc1cc(F)c(Cc2cccc(Cl)c2)cc1C [Compound 173, N′-(4-(3-chlorobenzyl)-5-fluoro-2-methylphenyl)-N-ethyl-N-methylformimidamide] | > 75% | > 80% | > 80% | > 75% | > 80% | > 70% | 75% |
| CCN(C)C=Nc1cc(C)c(Cc2ccccc2Cl)cc1F [Compound 213, N′-(4-(2-chlorobenzyl)-2-fluoro-5-methylphenyl)-N-ethyl-N-methylformimidamide] | > 75% | > 80% | > 80% | > 75% | > 80% | > 70% | 75% |
| CCN(C)C=Nc1cc(C)c(Cc2ccc(C)c(F)c2)cc1Cl [Compound 139, N′-(2-chloro-4-(3-fluoro-4-methylbenzyl)-5-methylphenyl)-N-ethyl-N-methylformimidamide] | > 75% | > 80% | > 80% | > 75% | > 80% | > 70% | 75% |
| C=CCN(C)C=Nc1cc(C)c(Cc2ccccc2F)cc1C [Compound 83, N-allyl-N′-(4-(2-fluorobenzyl)-2,5-dimethylphenyl)-N-methylformimidamide] | > 75% | > 80% | > 80% | > 75% | > 80% | > 70% | 75% |
